# From ChEMBL document CHEMBL2021919, “Computational analysis of structure-based interactions and ligand properties can predict efflux effects on antibiotics” (2012)
# Tests used:
# [1] = test system: Escherichia coli; assay: Ratio of MIC for wild type Escherichia coli JC7623 to MIC for acrAB-deficient Escherichia coli JZM120; format: functional
# [2] = test system: Salmonella typhimurium; assay: Ratio of MIC for wild type Salmonella typhimurium SH5014 to MIC for Salmonella typhimurium SH7616 harboring missense mutation in acrA/acrB gene by two-fold serial dilution method; format: functional, Salmonella enterica subsp. enterica serovar Typhimurium
# [3] = test system: Escherichia coli; assay: Antimicrobial activity against wild type Escherichia coli expressing AcrAB-TolC efflux pump; format: functional
# [4] = test system: Escherichia coli; assay: Ratio of MIC for wild type Escherichia coli TG1 to MIC for acrB-deficient Escherichia coli KAM3 by two-fold serial dilution method; format: functional
# [5] = test system: Escherichia coli; assay: Ratio of MIC for wild type Escherichia coli HS414 to MIC for acrB-deficient Escherichia coli HS832 by agar dilution method; format: functional
# [6] = test system: Escherichia coli; assay: Ratio of MIC for wild type Escherichia coli ECM1194 to MIC for acrAB-deficient Escherichia coli ECM1694; format: functional
SMILES,Ratio [1],Ratio [2],MIC [3] [µg/mL],Ratio [4],Ratio [5],Ratio [6]
CC1(C)S[C@@H]2[C@H](NC(=O)Cc3ccccc3)C(=O)N2[C@H]1C(=O)O [PENICILLIN G],2,32,8,,,
C[C@H]1[C@H](NC(=O)/C(=N\OC(C)(C)C(=O)O)c2csc(N)n2)C(=O)N1S(=O)(=O)O [AZTREONAM],,,0.05,1,,
C[C@@H](O)[C@H]1C(=O)N2C(C(=O)O)=C([C@H]3CCCO3)S[C@H]12 [FAROPENEM],,,0.39,4,,
CN(Cc1cnc2nc(N)nc(N)c2n1)c1ccc(C(=O)N[C@@H](CCC(=O)O)C(=O)O)cc1 [METHOTREXATE],,,640,,8,
CN(C)[C@@H]1C(O)=C(C(N)=O)C(=O)[C@@]2(O)C(O)=C3C(=O)c4c(O)cccc4[C@@](C)(O)[C@H]3C[C@@H]12 [TETRACYCLINE],,,1.25,,8,
CCn1cc(C(=O)O)c(=O)c2cc(F)c(N3CCNCC3)cc21 [NORFLOXACIN],,,0.004,,1,
CC[n+]1c(-c2ccccc2)c2cc(N)ccc2c2ccc(N)cc21.[Br-] [HOMIDIUM BROMIDE],,,800,,256,
CC1(C)S[C@@H]2[C@H](NC(=O)[C@H](N)c3ccc(O)cc3)C(=O)N2[C@H]1C(=O)O [AMOXICILLIN],1,,4,,,
CC1(C)S[C@@H]2[C@H](NC(=O)[C@H](NC(=O)N3CCNC3=O)c3ccccc3)C(=O)N2[C@H]1C(=O)O [AZLOCILLIN],4,,16,,,
CC1(C)S[C@@H]2[C@H](NC(=O)CCC[C@@H](N)C(=O)O)C(=O)N2[C@H]1C(=O)O [ADICILLIN],,1,8,,,
CC(=O)OCC1=C(C(=O)O)N2C(=O)[C@@H](NC(=O)CCC[C@@H](N)C(=O)O)[C@H]2SC1 [CEPHALOSPORIN C],,1,16,,,
CC1(C)S[C@@H]2[C@H](NC(=O)C(C(=O)O)c3ccccc3)C(=O)N2[C@H]1C(=O)O (stereo partly specified) [CARBENICILLIN],1,4,1.56,1,,
Nc1ccc2cc3ccc(N)cc3nc2c1 [PROFLAVINE],,,100,,8,
CCOc1ccc2ccccc2c1C(=O)N[C@@H]1C(=O)N2[C@@H]1SC(C)(C)[C@@H]2C(=O)O [NAFCILLIN],,,200,128,,
CC1(C)S[C@@H]2[C@H](NC(=O)C(c3ccccc3)S(=O)(=O)O)C(=O)N2[C@H]1C(=O)O (stereo partly specified) [SULBENICILLIN],,4,8,1,,
CC(C)(O/N=C(\C(=O)N[C@@H]1C(=O)N2C(C(=O)[O-])=C(C[n+]3ccccc3)CS[C@H]12)c1csc(N)n1)C(=O)O [CEFTAZIDIME],1,,0.12,,,
CO/N=C(\C(=O)N[C@@H]1C(=O)N2C(C(=O)[O-])=C(C[n+]3cccc4c3CCC4)CS[C@H]12)c1csc(N)n1 [CEFPIROME],1,,0.015,,,
CO[C@@H]1[C@@H](OC(N)=O)[C@@H](O)[C@H](Oc2ccc3c(O)c(NC(=O)c4ccc(O)c(CC=C(C)C)c4)c(=O)oc3c2C)OC1(C)C [NOVOBIOCIN],32,,32,64,64,
CC(=O)OCC1=C(C(=O)O)N2C(=O)[C@@H](NC(=O)Cc3cccs3)[C@H]2SC1 [CEPHALOTHIN],,,2,,,
Cc1onc(-c2ccccc2Cl)c1C(=O)N[C@@H]1C(=O)N2[C@@H]1SC(C)(C)[C@@H]2C(=O)O [CLOXACILLIN],128,256,256,128,,
CO/N=C(\C(=O)N[C@@H]1C(=O)N2C(C(=O)O)=C(COC(C)=O)CS[C@H]12)c1csc(N)n1 [CEFOTAXIME],,4,0.12,2,,

SMILES,Ratio [1],Ratio [2],MIC [3] [µg/mL],Ratio [4],Ratio [5],Ratio [6]
CC1(C)S[C@@H]2[C@H](NC(=O)[C@H](NC(=O)N3CCN(S(C)(=O)=O)C3=O)c3ccccc3)C(=O)N2[C@H]1C(=O)O [MEZLOCILLIN],32,,1,,,
CC1(C)S[C@@H]2[C@H](/N=C/N3CCCCCC3)C(=O)N2[C@H]1C(=O)O [AMDINOCILLIN],2,,0.5,,,
CS(=O)(=O)c1ccc([C@@H](O)[C@@H](CF)NC(=O)C(Cl)Cl)cc1 [FLORFENICOL],,,6.25,,8,
NC(=O)c1cc[n+](CC2=C(C(=O)[O-])N3C(=O)[C@@H](NC(=O)[C@@H](c4ccccc4)S(=O)(=O)O)[C@H]3SC2)cc1 [CEFSULODIN],1,1,16,,,
CCN1CCN(C(=O)N[C@@H](C(=O)N[C@@H]2C(=O)N3[C@@H]2SC(C)(C)[C@@H]3C(=O)O)c2ccccc2)C(=O)C1=O [PIPERACILLIN],,,4,,,
Cc1nnc(SCC2=C(C(=O)O)N3C(=O)[C@@H](NC(=O)Cn4cnnn4)[C@H]3SC2)s1 [CEFAZOLIN],1,1,0.39,,,
CCN1CCN(C(=O)N[C@@H](C(=O)N[C@@H]2C(=O)N3C(C(=O)O)=C(CSc4nnnn4C)CS[C@H]23)c2ccc(O)cc2)C(=O)C1=O [CEFOPERAZONE],2,,0.03,,,
O=C(Cc1cccs1)N[C@@H]1C(=O)N2C(C(=O)[O-])=C(C[n+]3ccccc3)CS[C@H]12 [CEPHALORIDINE],2,2,2,,,
CO/N=C(\C(=O)N[C@@H]1C(=O)N2C(C(=O)O)=C(CSc3nc(=O)c(O)nn3C)CS[C@H]12)c1csc(N)n1 [CEFTRIAXONE],1,2,0.015,,,
Cc1onc(-c2ccccc2)c1C(=O)N[C@@H]1C(=O)N2[C@@H]1SC(C)(C)[C@@H]2C(=O)O [OXACILLIN],512,,1020,256,,
CC(=O)NS(=O)(=O)c1ccc(N)cc1 [SULFACETAMIDE],,,2000,,1,
Cn1nnnc1SCC1=C(C(=O)O)N2C(=O)[C@@H](NC(=O)[C@H](O)c3ccccc3)[C@H]2SC1 [CEFAMANDOLE],4,,4,4,,
C[n+]1c2cc(N)ccc2cc2ccc(N)cc21.[Cl-] [EUFLAVINE],,,400,,128,
CO[C@@]1(NC(=O)C(C(=O)[O-])c2ccc(O)cc2)C(=O)N2C(C(=O)[O-])=C(CSc3nnnn3C)CO[C@@H]21.[Na+].[Na+] (stereo partly specified) [MOXALACTAM DISODIUM],,1,0.12,,,
CO[C@@]1(NC(=O)Cc2cccs2)C(=O)N2C(C(=O)O)=C(COC(N)=O)CS[C@@H]21 [CEFOXITIN],4,4,4,,,
CO/N=C(\C(=O)N[C@@H]1C(=O)N2C(C(=O)O)=C(COC(N)=O)CS[C@H]12)c1ccco1 [CEFUROXIME],16,,1.56,8,,
CO[C@@]1(NC(=O)CSCC#N)C(=O)N2C(C(=O)O)=C(CSc3nnnn3C)CS[C@@H]21 [CEFMETAZOLE],1,1,0.05,2,,
O=C(N[C@H](CO)[C@H](O)c1ccc([N+](=O)[O-])cc1)C(Cl)Cl [CHLORAMPHENICOL],,,4,,8,4
CCn1cc(C(=O)O)c(=O)c2ccc(C)nc21 [NALIDIXIC ACID],,,3.12,,2,
CO/N=C(\C(=O)N[C@@H]1C(=O)N2C(C(=O)[O-])=C(C[N+]3(C)CCCC3)CS[C@H]12)c1csc(N)n1,1,1,0.0075,,,
